Test results as given in patent publication US12285399B2, “Composition comprising bornyl acetate or pharmaceutically acceptable salt thereof as active ingredient for prevention or treatment of stress-related disorder” (UNIVERSITY-INDUSTRY COOPERATION GROUP OF KYUNG HEE …, priority 2019, dated 2025).

Columns and labels:
Format in all cases: in vivo, C57BL/6NTac mice
[1] = system: animal model of stress depression induced by chronic restrained stress (CRS); test: Tail suspension test (TST) in CRS-induced stress depression model; details: CRS+BA group, oral daily 1 hour before restraint, day 14, last 4 minutes of 6-minute test; dose not stated
Method: In order to confirm the antidepressant efficacy of bornyl acetate on the animal model of stress depression, an animal model of depression induced by chronic restrained stress (CRS) was prepared. Specifically, the animal model, 8-week-old male C57BL/6NTac mice after birth (Narabiotechnology, Korea; weight 22-24 g) had been stabilized for 1 week. A 50 ml conical tube (SPL Life sciences, Pocheon, Korea) was punched to make a hole, thereby making a restraint frame. The mice were put in the frame and restrained for 2 hours every day for 14 days. After restraint, the mice were allowed to freely ingest water and food in the home cage. On the 14th day after chronic restrained stress was induced, the tail tip of the mouse was fixed and hanged upside down on a horizontal bar (1 cm in diameter) installed at a height of about 50 cm from the floor, and then the time of immobility was measured. Measurements were made during the last 4 minutes of the 6-minute test period. Bornyl acetate (25, 50 and 100 mg/kg) of the present invention was dissolved in 0.1 M PBS, and the mixture was orally administered 1 hour before inducing restrained stress every day. Bornyl acetate was administered in a dose per individual of 100 μl.

CD11b protein = test: Western blot of CD11b protein in brain (hippocampus and amygdala) of CRS model; details: CRS+BA group
Method: In order to confirm the antidepressant efficacy of bornyl acetate on the animal model of stress depression, an animal model of depression induced by chronic restrained stress (CRS) was prepared. Specifically, the animal model, 8-week-old male C57BL/6NTac mice after birth (Narabiotechnology, Korea; weight 22-24 g) had been stabilized for 1 week. A 50 ml conical tube (SPL Life sciences, Pocheon, Korea) was punched to make a hole, thereby making a restraint frame. The mice were put in the frame and restrained for 2 hours every day for 14 days. After restraint, the mice were allowed to freely ingest water and food in the home cage. The hippocampus and amygdala of the brain were excised. They were added to 200 μl of a protein lysis buffer (10 mM Tris, 0.5 mM EDTA, 0.25 M sucrose), and proteins were isolated using a grinder. The isolated protein was quantified by the Bradford method (Bio-rad, USA) using bovine serum albumin (BSA, Sigma, USA), and then 25 μg of the protein was separated by 10% sodium dodecyl sulfate-polyacrylamide gel electrophoresis (SDS-PAGE) and transferred to polyvinylidene difluoride (PVDF) membrane (Gendepot, UK). PVDF membranes were blocked in 5% skimmed milk (BD, USA) for 1 hour. […] Identification and quantitative analysis of proteins were analyzed using an imaging device ChemiDoc XRS+ (Bio-Rad). […]

c-Fos = test: Immunohistochemical staining for c-Fos in brain of CRS model; details: hippocampus and amygdala, CRS+BA group, 100 mg/kg oral
Method: In order to confirm the antidepressant efficacy of bornyl acetate on the animal model of stress depression, an animal model of depression induced by chronic restrained stress (CRS) was prepared. Specifically, the animal model, 8-week-old male C57BL/6NTac mice after birth (Narabiotechnology, Korea; weight 22-24 g) had been stabilized for 1 week. A 50 ml conical tube (SPL Life sciences, Pocheon, Korea) was punched to make a hole, thereby making a restraint frame. The mice were put in the frame and restrained for 2 hours every day for 14 days. After restraint, the mice were allowed to freely ingest water and food in the home cage. Bornyl acetate (100 mg/kg) was administered orally 1 hour before induction of restraint stress every day. 14 days later, the mice were anesthetized, and 4% paraformaldehyde was perfused into the heart. Then, the mice were fixed, and the brain was excised. The excised brain was immersed in 4% paraformaldehyde and fixed at 4° C. for one more day. It was then changed to 30% sucrose, and the brain was stored at 4° C. for 3 days or more to prevent freeze damage. The brain was cut into a thickness of 30 μm using a cryocut microtome to prepare the frozen sections. […]

CC(=O)OC1CC2CCC1(C)C2(C)C (stereo not shown) [BA, bornyl acetate]
time of immobility, tail suspension test [1]: 91.4 s
expression of CD11b protein (CRS-induced increase) (CD11b protein; amygdala): significantly inhibited
expression of CD11b protein (CRS-induced increase) (CD11b protein; hippocampus): significantly inhibited
distribution of cells immunostained by c-Fos (c-Fos): consistent
